From US20250295620A1, “PHARMACEUTICAL COMPOSITION FOR TREATMENT OF HEART FAILURE WITH DIASTOLIC DYSFUNCTION” (NATIONAL UNIVERSITY CORPORATION TOKAI NATIONAL HIGHER …, priority 2022, published 2025)

Tests used:
[1] = system: HFpEF model mice; experiment: Diastolic function of HFpEF model mice, overall conclusion from Examples 1 and 2; assay type: in vivo; conditions: summary of Examples 1 and 2
Protocol: (§1) HFpEF model mice are generated by the method reported by Schiattarella et al. (Nature. 568 (7752): 351-356. 2019). Specifically, male mice at an age of 8 to 10 weeks are given High Fat Diet (Rodent Diet with 60% kcal % fat, D12492, Research Diets Inc.) and drinking water containing a dissolved nitric oxide synthase inhibitor (No-nitro-L-arginine methyl ester hydrochloride (L-NAME), N5751, Sigma) (at a concentration of 0.5 g/L), and kept for five weeks. Various measurements are performed to confirm the establishment of an HFpEF model.
The following drugs are administered to mouse groups while mice are continued to be given the high-fat diet and the drinking water containing the dissolved nitric oxide synthase inhibitor. […]
Transthoracic echocardiography is performed on mice under inhalational anesthesia with isoflurane. Transmitral flow velocity pattern (TMF) is measured by pulsed Doppler echocardiography using vevo 3100 (FUJIFILM VisualSonics) equipped with a 30 MHz probe for small animals (MX-400) to determine the early diastolic inflow velocity pattern (E-wave). Early diastolic mitral annular velocity (e′) is measured by tissue Doppler echocardiography. […] LV end-systolic diameter and LV end-diastolic diameter are measured by M-mode echocardiography to calculated an LV ejection fraction (EF %). […]

[2] = system: HFpEF model mice; experiment: Masson's trichrome staining of heart tissue of HFpEF model mice, Example 2; assay type: in vivo; conditions: Example 2, FIG. 9; tamibarotene 3 mg/kg, peretinoin 10 mg/kg, oral gavage once a day, five weeks; 400-fold
Protocol: as §1
The following drugs are administered to mouse groups while mice are continued to be given the high-fat diet and the drinking water containing the dissolved nitric oxide synthase inhibitor. AM80 (Cat. No. 3507, TOCRIS) is orally administered to tamibarotene administration group via oral gavage at a single dose of 3 mg/kg once a day. Peretinoin (Cat. No. HY-100008, MedChemExpress) is orally administered to peretinoin administration group via oral gavage at a single dose of 10 mg/kg once a day. DMSO as a vehicle is orally administered to control group via oral gavage once a day. […]
Tissue specimens are prepared from the harvested heart, and stained with Masson's trichrome staining. The tissue fibrosis is photographed, and the images are analyzed using Image J for assessment.

[3] = system: HFpEF model mice; experiment: Pressure-volume loop analysis with conductance catheter in HFpEF model mice, Example 1; assay type: in vivo; conditions: Example 1, FIG. 4; tamibarotene 3 mg/kg, peretinoin 0.3 mg/body, oral gavage once a day, five weeks
Protocol: as §1
(§2) The following drugs are administered to mouse groups while mice are continued to be given the high-fat diet and the drinking water containing the dissolved nitric oxide synthase inhibitor. AM80 (Cat. No. 3507, TOCRIS) is orally administered to tamibarotene administration group via oral gavage at a single dose of 3 mg/kg once a day. Peretinoin (Cat. No. HY-100008, MedChemExpress) is orally administered to peretinoin administration group via oral gavage at a single dose of 0.3 mg/body once a day. DMSO as a vehicle is orally administered to control group via oral gavage once a day. Administration is continued for five weeks, and various measurements are performed five weeks after the initial drug administration. […]

[4] = system: HFpEF model mice; experiment: Transthoracic echocardiography in HFpEF model mice, Example 1; assay type: in vivo; conditions: tamibarotene 3 mg/kg, peretinoin 0.3 mg/body, oral gavage once a day, five weeks; for left ventricular ejection fraction before and after drug administration: Example 1, FIG. 2; for E/e′ ratio after completion of drug administration compared with before start: Example 1, FIG. 3
Protocol: as §1
(§3) The following drugs are administered to mouse groups while mice are continued to be given the high-fat diet and the drinking water containing the dissolved nitric oxide synthase inhibitor. AM80 (Cat. No. 3507, TOCRIS) is orally administered to tamibarotene administration group via oral gavage at a single dose of 3 mg/kg once a day. Peretinoin (Cat. No. HY-100008, MedChemExpress) is orally administered to peretinoin administration group via oral gavage at a single dose of 0.3 mg/body once a day. DMSO as a vehicle is orally administered to control group via oral gavage once a day. Administration is continued for five weeks, and various measurements are performed five weeks after the initial drug administration.
(§4) Transthoracic echocardiography is performed on mice under inhalational anesthesia with isoflurane. Transmitral flow velocity pattern (TMF) is measured by pulsed Doppler echocardiography using vevo 3100 (FUJIFILM VisualSonics) equipped with a 30 MHz probe for small animals (MX-400) to determine the early diastolic inflow velocity pattern (E-wave). Early diastolic mitral annular velocity (e′) is measured by tissue Doppler echocardiography. The transmitral E velocity is divided by the e′ velocity to calculate an E/e′ ratio. LV end-systolic diameter and LV end-diastolic diameter are measured by M-mode echocardiography to calculated an LV ejection fraction (EF %).

[5] = system: HFpEF model mice; experiment: Pressure-volume loop analysis with conductance catheter in HFpEF model mice, Example 2; assay type: in vivo; conditions: Example 2, FIG. 8; tamibarotene 3 mg/kg, peretinoin 10 mg/kg, oral gavage once a day, five weeks
Protocol: as §1
as §2, with “10 mg/kg” for “0.3 mg/body”

[6] = system: HFpEF model mice; experiment: Transthoracic echocardiography in HFpEF model mice, Example 2; assay type: in vivo; conditions: tamibarotene 3 mg/kg, peretinoin 10 mg/kg, oral gavage once a day, five weeks; for left ventricular ejection fraction before and after drug administration: Example 2, FIG. 6; for E/e′ ratio after completion of drug administration compared with before start: Example 2, FIG. 7
Protocol: as §1
as §3, with “10 mg/kg” for “0.3 mg/body”
as §4

[7] = system: HFpEF model mice; experiment: Heart weight/tibia length measurement in HFpEF model mice, Example 2; assay type: in vivo; conditions: Example 2, FIG. 5; tamibarotene 3 mg/kg, peretinoin 10 mg/kg, oral gavage once a day, five weeks; compared among groups incl. DMSO control
Protocol: as §1
as §3, with “10 mg/kg” for “0.3 mg/body”
Mice are euthanized after the catheterization, and the heart is harvested for weight measurement. […]

[8] = system: HFpEF patients; conditions: clinical studies, Anker S et al., N Engl J Med 2021; cited from earlier work

Compound | effect on the diastolic function of the HFpEF model mice [1] | tissue fibrosis (fibrosis area, high-power field) compared with control group [2] | stiffness constant β compared with control group [3] | left ventricular ejection fraction before and after drug administration [4] | E/e′ ratio after completion of drug administration compared with before start [4] | stiffness constant β compared with control group [5] | left ventricular ejection fraction before and after drug administration [6] | E/e′ ratio after completion of drug administration compared with before start [6] | heart weight/tibia length ratio after completion of drug administration [7] | efficacy for HFpEF patients [8]
CC1(C)CCC(C)(C)c2cc(NC(=O)c3ccc(C(=O)O)cc3)ccc21 [tamibarotene] | improving effect | significantly reduced | reduced | no difference | significantly reduced | significantly reduced | no difference | significantly reduced | no significant difference | –
OC[C@H]1O[C@@H](c2ccc(Cl)c(Cc3ccc(O[C@H]4CCOC4)cc3)c2)[C@H](O)[C@@H](O)[C@@H]1O [Empagliflozin] | – | – | – | – | – | – | – | – | – | effective
CC(C)=CCC/C(C)=C/CC/C(C)=C/C=C/C(C)=C/C(=O)O [peretinoin] | improving effect | significantly reduced | reduced | no difference | significantly reduced | significantly reduced | no difference | significantly reduced | no significant difference | –
